# Where a name gives a salt, the structure may show the parent alone.
# Molecular target: T1, human V1a receptor (Homo sapiens, UniProt P37288)
# T1 construct: expressed in transfected cells; host or cells: HEK293 cells, transiently transfected; membrane preparation
# Experiment: human V1a receptor binding studies (SPA, 3H-Vasopressin, membranes of transfected HEK293 cells)
# Conditions: displacement of 3H-Vasopressin, HEK293 cell membranes, 1 h at room temperature; Ki by Cheng-Prussoff equation; read-out: pKi (hV1a) (converted)
# Procedure: The human V1a receptor was cloned by RT-PCR from total human liver RNA. The coding sequence was subcloned in an expression vector after sequencing to confirm the identity of the amplified sequence. […] Cell membranes were prepared from HEK293 cells transiently transfected with the expression vector and grown in 20 liter fermenters with the following protocol.
# 50 g of cells are resuspended in 30 ml freshly prepared ice cold Lysis buffer (50 mM HEPES, 1 mM EDTA, 10 mM magnesium dichloride adjusted to pH=7.4+complete cocktail of protease inhibitor (Roche Diagnostics)). Homogenized with Polytron for 1 min and sonicated on ice for 2×2 minutes at 80% intensity (Vibracell sonicator). The preparation is centrifuged 20 min at 500 g at 4° C., the pellet is discarded and the supernatant centrifuged 1 hour at 43'000 g at 4° C. (19'000 rpm). The pellet is resuspended in 12.5 ml Lysis buffer+12.5 ml Sucrose 20% and homogenized using a Polytron for 1-2 min. The protein concentration is determined by the Bradford method and aliquots are stored at −80° C. until use. For binding studies 60 mg Yttrium silicate SPA beads (Amersham) are mixed with an aliquot of membrane in binding buffer (50 mM Tris, 120 mM sodium chloride, 5 mM potassium chloride, 2 mM Calcium dichloride, 10 mM magnesium dichloride) for 15 minutes with mixing. 50 μl of bead/membrane mixture is then added to each well of a 96 well plate, followed by 50 μl of 4 nM 3H-Vasopressin (American Radiolabeled Chemicals). For total binding measurement 100 μl of binding buffer are added to the respective wells, for non-specific binding 100 μl of 8.4 mM cold vasopressin and for compound testing 100 μl of a serial dilution of each compound in 2% dimethyl sulfoxide. The plate is incubated 1 h at room temperature, centrifuged […] at 1000 g and counted on a Packard Top-Count. Non-specific binding counts are subtracted from each well and data is normalized to the maximum specific binding set at 100%. To calculate an IC 50 the curve is fitted using a non-linear regression model (XLfit) and the Ki is calculated using the Cheng-Prussoff equation.
# T1 sequence (P37288 whole entry): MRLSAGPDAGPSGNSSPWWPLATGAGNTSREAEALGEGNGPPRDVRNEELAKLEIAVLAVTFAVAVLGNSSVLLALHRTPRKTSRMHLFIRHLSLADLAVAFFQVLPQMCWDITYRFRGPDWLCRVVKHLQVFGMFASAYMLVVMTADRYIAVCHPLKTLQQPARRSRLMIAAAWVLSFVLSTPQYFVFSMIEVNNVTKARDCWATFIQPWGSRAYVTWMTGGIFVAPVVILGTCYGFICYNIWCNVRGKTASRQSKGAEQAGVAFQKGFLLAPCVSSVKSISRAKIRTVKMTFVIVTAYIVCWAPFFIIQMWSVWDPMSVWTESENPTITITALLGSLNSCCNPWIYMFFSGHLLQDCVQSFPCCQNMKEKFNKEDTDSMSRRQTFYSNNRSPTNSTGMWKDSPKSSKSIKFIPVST
row,Compound,Ki [nM]
1,"CC(C)(C)OC(=O)N1Cc2cc(Cl)ccc2-n2c(nnc2[C@H]2CC[C@H](Oc3ccccc3)CC2)C1 [Example 1, trans-8-Chloro-1-(4-phenoxy-cyclohexyl)-4H,6H-2,3,5,10b-tetraaza-benzoazulene-5-carboxylic acid tert-butyl ester]",3.24
2,"Clc1ccc2c(c1)CNCc1nnc([C@H]3CC[C@H](Oc4ccccc4)CC3)n1-2 [Example 2, trans-8-Chloro-1-(4-phenoxy-cyclohexyl)-5,6-dihydro-4H-2,3,5,10b-tetraaza-benzoazulene hydrochloride]",4.37
3,"CN1Cc2cc(Cl)ccc2-n2c(nnc2[C@H]2CC[C@H](Oc3ccccc3)CC2)C1 [Example 3, trans-8-Chloro-5-methyl-1-(4-phenoxy-cyclohexyl)-5,6-dihydro-4H-2,3,5,10b-tetraaza-benzo[e]azulene]",1.58
4,"CC(=O)N1Cc2cc(Cl)ccc2-n2c(nnc2[C@H]2CC[C@H](Oc3ccccc3)CC2)C1 [Example 4, trans-1-[8-Chloro-1-(4-phenoxy-cyclohexyl)-4H,6H-2,3,5,10b-tetraaza-benzoazulen-5-yl]-ethanone]",1.41
5,"CS(=O)(=O)N1Cc2cc(Cl)ccc2-n2c(nnc2[C@H]2CC[C@H](Oc3ccccc3)CC2)C1 [Example 5, trans-8-Chloro-5-methanesulfonyl-1-(4-phenoxy-cyclohexyl)-5,6-dihydro-4H-2,3,5,10b-tetraaza-benzoazulene]",1.7
6,"OCCN1Cc2cc(Cl)ccc2-n2c(nnc2[C@H]2CC[C@H](Oc3ccccc3)CC2)C1 [Example 6, trans-2-[8-Chloro-1-(4-phenoxy-cyclohexyl)-4H,6H-2,3,5,10b-tetraaza-benzoazulen-5-yl]-ethanol]",1.58
7,"CC(C)N1Cc2cc(Cl)ccc2-n2c(nnc2[C@H]2CC[C@H](Oc3ccccc3)CC2)C1 [Example 7, trans-8-Chloro-5-isopropyl-1-(4-phenoxy-cyclohexyl)-5,6-dihydro-4H-2,3,5,10b-tetraaza-benzoazulene]",1.7
8,"CN(C)S(=O)(=O)N1Cc2cc(Cl)ccc2-n2c(nnc2[C@H]2CC[C@H](Oc3ccccc3)CC2)C1 [Example 8, trans-8-Chloro-1-(4-phenoxy-cyclohexyl)-4H,6H-2,3,5,10b-tetraaza-benzoazulene-5-sulfonic acid dimethylamide]",2
9,"Clc1ccc2c(c1)CN(Cc1ccccn1)Cc1nnc([C@H]3CC[C@H](Oc4ccccc4)CC3)n1-2 [Example 9, trans-8-Chloro-1-(4-phenoxy-cyclohexyl)-5-pyridin-2-ylmethyl-5,6-dihydro-4H-2,3,5,10b-tetraaza-benzoazulene]",1.82
10,"CN(C)CC(=O)N1Cc2cc(Cl)ccc2-n2c(nnc2[C@H]2CC[C@H](Oc3ccccc3)CC2)C1 [Example 10, trans-1-[8-Chloro-1-(4-phenoxy-cyclohexyl)-4H,6H-2,3,5,10b-tetraaza-benzoazulen-5-yl]-2-dimethylamino-ethanone]",2.09
11,"CC(C)(C)OC(=O)N1Cc2cc(F)ccc2-n2c(nnc2[C@H]2CC[C@H](Oc3ccccc3)CC2)C1 [Example 11, trans-8-Fluoro-1-(4-phenoxy-cyclohexyl)-4H,6H-2,3,5,10b-tetraaza-benzo[e]azulene-5-carboxylic acid tert-butyl ester]",5.5
12,"CN1Cc2cc(F)ccc2-n2c(nnc2[C@H]2CC[C@H](Oc3ccccc3)CC2)C1 [Example 13, trans-8-Fluoro-5-methyl-1-(4-phenoxy-cyclohexyl)-5,6-dihydro-4H-2,3,5,10b-tetraaza-benzoazulene]",5.37
13,"CC(C)(C)OC(=O)N1Cc2cc(Cl)ccc2-n2c(nnc2[C@H]2CC[C@@H](Oc3ccccc3)CC2)C1 [Example 14, cis-8-Chloro-1-(4-phenoxy-cyclohexyl)-4H,6H-2,3,5,10b-tetraaza-benzoazulene-5-carboxylic acid tert-butyl ester]",9.33
14,"CN1Cc2cc(Cl)ccc2-n2c(nnc2[C@H]2CC[C@@H](Oc3ccccc3)CC2)C1 [Example 16, cis-8-Chloro-5-methyl-1-(4-phenoxy-cyclohexyl)-5,6-dihydro-4H-2,3,5,10b-tetraaza-benzoazulene]",2.88
15,"CC(C)(C)OC(=O)N1Cc2cc(Cl)ccc2-n2c(nnc2[C@H]2CC[C@H](Oc3ccc(F)cc3)CC2)C1 [Example 17, trans-8-Chloro-1-[4-(4-fluoro-phenoxy)-cyclohexyl]-4H,6H-2,3,5,10b-tetraaza-benzoazulene-5-carboxylic acid tert-butyl ester]",3.72
16,"Fc1ccc(O[C@H]2CC[C@H](c3nnc4n3-c3ccc(Cl)cc3CNC4)CC2)cc1 [Example 18, trans-8-Chloro-1-[4-(4-fluoro-phenoxy)-cyclohexyl]-5,6-dihydro-4H-2,3,5,10b-tetraaza-benzo[e]azulene hydrochloride]",9.55
17,"CN1Cc2cc(Cl)ccc2-n2c(nnc2[C@H]2CC[C@H](Oc3ccc(F)cc3)CC2)C1 [Example 19, trans-8-Chloro-1-[4-(4-fluoro-phenoxy)-cyclohexyl]-5-methyl-5,6-dihydro-4H-2,3,5,10b-tetraaza-benzoazulene]",3.09
18,"CC(C)(C)OC(=O)N1Cc2cc(Cl)ccc2-n2c(nnc2[C@H]2CC[C@H](Oc3ccc(C#N)cc3)CC2)C1 [Example 20, trans-8-Chloro-1-[4-(4-cyano-phenoxy)-cyclohexyl]-4H,6H-2,3,5,10b-tetraaza-benzo[e]azulene-5-carboxylic acid tert-butyl ester]",7.76
19,"CN1Cc2cc(Cl)ccc2-n2c(nnc2[C@H]2CC[C@H](Oc3ccc(C#N)cc3)CC2)C1 [Example 22, trans-4-[4-(8-Chloro-5-methyl-5,6-dihydro-4H-2,3,5,10b-tetraaza-benzo[e]azulen-1-yl)-cyclohexyloxy]-benzonitrile]",8.91
20,"CC(C)(C)OC(=O)N1Cc2cc(Cl)ccc2-n2c(nnc2[C@H]2CC[C@H](Oc3ccc(C(F)(F)F)cc3)CC2)C1 [Example 23, trans-8-Chloro-1-[4-(4-trifluoromethyl-phenoxy)-cyclohexyl]-4H,6H-2,3,5,10b-tetraaza-benzo[e]azulene-5-carboxylic acid tert-butyl ester]",9.12
21,"CC(C)(C)OC(=O)N1Cc2cc(Cl)ccc2-n2c(nnc2[C@H]2CC[C@H](Oc3cccc(Cl)c3)CC2)C1 [Example 26, trans-8-Chloro-1-[4-(3-chloro-phenoxy)-cyclohexyl]-4H,6H-2,3,5,10b-tetraaza-benzoazulene-5-carboxylic acid tert-butyl ester]",4.17
22,"CN1Cc2cc(Cl)ccc2-n2c(nnc2[C@H]2CC[C@H](Oc3cccc(Cl)c3)CC2)C1 [Example 28, trans-8-Chloro-1-[4-(3-chloro-phenoxy)-cyclohexyl]-5-methyl-5,6-dihydro-4H-2,3,5,10b-tetraaza-benzoazulene]",3.09
23,"COc1cccc(O[C@H]2CC[C@H](c3nnc4n3-c3ccc(Cl)cc3CN(C(=O)OC(C)(C)C)C4)CC2)c1 [Example 29, trans-8-Chloro-1-[4-(3-methoxy-phenoxy)-cyclohexyl]-4H,6H-2,3,5,10b-tetraaza-benzoazulene-5-carboxylic acid tert-butyl ester]",4.68
24,"COc1cccc(O[C@H]2CC[C@H](c3nnc4n3-c3ccc(Cl)cc3CNC4)CC2)c1 [Example 30, trans-8-Chloro-1-[4-(3-methoxy-phenoxy)-cyclohexyl]-5,6-dihydro-4H-2,3,5,10b-tetraaza-benzo[e]azulene hydrochloride]",3.31
25,"COc1cccc(O[C@H]2CC[C@H](c3nnc4n3-c3ccc(Cl)cc3CN(C)C4)CC2)c1 [Example 31, trans-8-Chloro-1-[4-(3-methoxy-phenoxy)-cyclohexyl]-5-methyl-5,6-dihydro-4H-2,3,5,10b-tetraaza-benzoazulene]",2.09
26,"CN1Cc2cc(Cl)ccc2-n2c(nnc2[C@H]2CC[C@H](Oc3cccc(C#N)c3)CC2)C1 [Example 34, trans-3-[4-(8-Chloro-5-methyl-5,6-dihydro-4H-2,3,5,10b-tetraaza-benzoazulen-1-yl)-cyclohexyloxy]-benzo nitrile]",2.69
27,"Cc1cccc(O[C@H]2CC[C@H](c3nnc4n3-c3ccc(Cl)cc3CN(C(=O)OC(C)(C)C)C4)CC2)c1 [Example 35, trans-8-Chloro-1-(4-m-tolyloxy-cyclohexyl)-4H,6H-2,3,5,10b-tetraaza-benzo[e]azulene-5-carboxylic acid tert-butyl ester]",4.9
28,"Cc1cccc(O[C@H]2CC[C@H](c3nnc4n3-c3ccc(Cl)cc3CNC4)CC2)c1 [Example 36, trans-8-Chloro-1-(4-m-tolyloxy-cyclohexyl)-5,6-dihydro-4H-2,3,5,10b-tetraaza-benzo[e]azulene hydrochloride]",7.59
